Assay results: patent US11160887B2, “Compositions for use in diagnosing and treating melanoma, including metastatic melanoma and methods related to same” (UNM RAINFOREST INNOVATIONS, priority 2008, dated 2021)
Like-named read-outs stand apart in the source and are kept apart here. Residues, ends and D or L forms follow the SMILES beside them.

Assays:
[1] = molecular target: T1, MC1 receptor (B16/F1 murine melanoma cells) (Mus musculus, UniProt Q01727); assay: In vitro competitive binding assay in B16/F1 cells (125I-Tyr2-NDP-MSH displacement); details: 25° C., 2 h
T1 construct: host or cells: B16/F1 murine melanoma cells
Method: In vitro Competitive Binding Assay: The IC50 values of DOTA-CycMSH and DOTA-GlyGlu-CycMSH were determined by using methods described previously (8). B16/F1 cells were harvested and seeded into a 24-well cell culture plate (5×10^5/well) and incubated at 37° C. overnight. After being washed once with binding media (MEM with 25 mM HEPES, pH 7.4, 0.2% BSA, 0.3 mM 1,10-phenathroline), the cells were incubated at room temperature (25° C.) for 2 h with approximately 50,000 cpm of ^125I-Tyr^2-[Nle^4, D-Phe^7]-α-MSH {NDP-MSH} (GE HealthCare, Piscataway, N.J.) in presence of increasing concentrations of DOTA-CycMSH or DOTA-GlyGlu-CycMSH in 0.3 ml of binding media. The reaction media were aspirated after incubation. Cells were rinsed with 0.5 ml of ice-cold pH 7.4, 0.2% BSA/0.01 M PBS twice and lysed in 0.5 ml of 1 N NaOH for 5 minutes. The activities in cells were measured in a gamma counter. The IC50 values for the peptides were calculated by using the Grafit software (Erithacus Software Limited, UK).
In vitro Competitive Binding Assay: The IC50 values of DOTA-GluGlu-CycMSH and Ac-GluGlu-CycMSH[DOTA] were determined by using methods described previously (12). B16/F1 cells were harvested and seeded into a 24-well cell culture plate (5×10^5/well) and incubated at 37° C. overnight. After being washed once with binding media (MEM with 25 mM HEPES, pH 7.4, 0.2% BSA, 0.3 mM 1,10-phenathroline), the cells were incubated at 25° C. for 2 h with approximately 50,000 cpm of ^125I-(Tyr^2)-NDP-MSH in the presence of increasing concentrations (10^−13 to 10^−6 M) of DOTA-GluGlu-CycMSH or Ac-GluGlu-CycMSH[DOTA] in 0.3 ml of binding media. The reaction media were aspirated after incubation. Cells were rinsed with 0.5 ml of ice-cold pH 7.4; 0.2% BSA/0.01 M PBS twice and lysed in 0.5 ml of 1 N NaOH for 5 min. The activities associated with cells were measured in a Wallac 1480 automated gamma counter (PerkinElmer, N.J.). The IC50 values of the peptides were calculated by using Prism software (GraphPad Software, La Jolla, Calif.).

[2] = molecular target: T2, MC1 receptor (B16/F10 murine melanoma cells) (Mus musculus, UniProt Q01727); assay: In vitro competitive binding assay in B16/F10 cells (125I-(Tyr2)-NDP-MSH displacement); details: 25° C., 2 h, read-out: IC50 (MC1 receptor binding affinity)
T2 construct: host or cells: B16/F10 murine melanoma cells
Method: In vitro Competitive Binding Assay: The IC50 value of DOTA-GlyGlu-CycMSH was determined in B16/F10 cells. The cells were harvested and seeded into a 24-well cell culture plate (5×10^5/well) and incubated at 37° C. overnight. After being washed once with binding media, the cells were incubated at 25° C. for 2 h with approximately 50,000 cpm of ^125I-(Tyr^2)-NDP-MSH in the presence of increasing concentrations of DOTA-GlyGlu-CycMSH (10^−12 to 10^−5 M) in 0.3 mL of binding media. The reaction media were aspirated after incubation. Cells were rinsed with 0.5 mL of ice-cold pH 7.4, 0.2% BSA/0.01 M PBS twice, and then lysed in 0.5 mL of 1 N NaOH for 5 min. The activities associated with the cells were measured in a gamma counter. The IC50 value was calculated by using Prism software.

[3] = Urinary metabolites by HPLC in B16/F1 melanoma-bearing C57 mice; format: in vivo, mouse; details: urine, 2 h post-injection
Method: Urinary Metabolites of ^111In-DOTA-CycMSH and ^111In-DOTA-GlyGlu-CycMSH: One hundred microliter of HPLC purified ^111In-DOTA-CycMSH (0.74-1.11 MBq, 0.82-1.12 ng) or ^111In-DOTA-GlyGlu-CycMSH (0.74-1.11 MBq, 0.90-1.35 ng) was injected into each B16/F1 murine melanoma-bearing C57 mouse through the tail vein. At 2 h after dose administration, mice were sacrificed and the urine was collected. The radioactive metabolites in the urine were analyzed by injecting aliquots of urine into HPLC. A 20-minute gradient of 16-26% acetonitrile/20 mM HCl was used for the urine analysis.

[4] = system: B16/F1 murine melanoma-bearing C57 mice; assay: Biodistribution in B16/F1 murine melanoma-bearing C57 mice; format: in vivo, mouse
Method: (§1) Biodistribution Studies: All the animal studies were conducted in compliance with Institutional Animal Care and Use Committee approval. The pharmacokinetics of ^111In-DOTA-CycMSH and ^111In-DOTA-GlyGlu-CycMSH were determined in B16/F1 murine melanoma-bearing C57 female mice (Harlan, Indianapolis, Ind.). C57 mice were inoculated subcutaneously with 1×10^6 B16/F1 murine melanoma cells in the right flank. After 10 days, when the weight of tumors reached approximately 0.2 g, 0.037 MBq of ^111In-DOTA-CycMSH or ^111In-DOTA-GlyGlu-CycMSH was injected into each mouse through the tail vein. Groups of 5 mice were sacrificed at 2, 4 and 24 h post-injection, and tumors and organs of interest were harvested, weighed and counted. Blood values were taken as 6.5% of the whole-body weight. The tumor uptake specificity of ^111In-DOTA-CycMSH and ^111In-DOTA-GlyGlu-CycMSH was determined by blocking tumor uptake with the co-injection of 10 μg (6.07 nmol) of unlabeled NDP-MSH, a linear α-MSH peptide analogue with picomolar affinity for the MC1 receptors present on murine melanoma cells. Statistical analysis was performed using the Student's t-test for unpaired data.

[5] = as above; format: in vivo, mouse; details: female, C57, mouse, iv, 0.037 MBq, total radioactivity; for tissue uptake: all time points (2, 4, 24 h)
Method: as §1

[6] = Stability in mouse serum monitored by RP-HPLC; format: in vitro ADME; details: 37° C., 24 h incubation
Method: Complexation of the Peptide with ^111In: ^111In-DOTA-CycMSH and ^111In-DOTA-GlyGlu-CycMSH were prepared using a 0.5 M NH4OAc-buffered solution at pH 5.4. Briefly, 50 μl of ^111InCl3 (18.5-37.0 MBq in 0.05 M HCl), 10 μl of 1 mg/ml DOTA-CycMSH or DOTA-GlyGlu-CycMSH aqueous solution and 400 μl of 0.5 M NH4OAc (pH 5.4) were added into a reaction vial and incubated at 75° C. for 45 min. After the incubation, 20 μl of 0.5% EDTA aqueous solution was added into the reaction vial to scavenge potential unbound ^111In. The radiolabeled complexes were purified to single species by Waters RP-HPLC (Milford, Mass.) on a Grace Vadyc C-18 reverse phase analytical column (Deerfield, Ill.) using a 20-minute gradient of 16-26% acetonitrile in 20 mM HCl aqueous solution with a flowrate of 1 ml/min. Purified peptide samples were purged with N2 gas for 20 minutes to remove the acetonitrile. The pH of final solution was adjusted to 7.4 with 0.1 N NaOH and normal saline for animal studies. The stability of ^111In-DOTA-CycMSH and ^111In-DOTA-GlyGlu-CycMSH was determined by incubation in mouse serum at 37° C. according to the published procedure (20) for various time periods, and monitored for degradation by RP-HPLC.

[7] = system: endocytosis in tubular cells; details: rat model, literature (27); cited from earlier work

T1 sequence (Q01727 whole entry): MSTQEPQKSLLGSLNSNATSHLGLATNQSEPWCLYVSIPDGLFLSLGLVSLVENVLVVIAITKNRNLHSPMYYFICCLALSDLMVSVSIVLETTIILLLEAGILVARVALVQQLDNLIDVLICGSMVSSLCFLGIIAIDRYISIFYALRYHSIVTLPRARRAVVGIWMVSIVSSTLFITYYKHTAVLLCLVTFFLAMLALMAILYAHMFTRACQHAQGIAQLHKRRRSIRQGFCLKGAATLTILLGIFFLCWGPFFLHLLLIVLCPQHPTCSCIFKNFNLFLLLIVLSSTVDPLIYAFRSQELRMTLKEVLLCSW
T2 sequence (Q01727 whole entry): as above

## CCCC[C@@H]1NC(=O)[C@@H](NC(=O)CN2CCN(CC(=O)O)CCN(CC(=O)O)CCN(CC(=O)O)CC2)CCCCNC(=O)[C@H](CC(=O)O)NC(=O)[C@H](C(C)C)NC(=O)[C@@H]2CCCN2C(=O)[C@H](CCCNC(=N)N)NC(=O)CNC(=O)[C@H](Cc2c[nH]c3ccccc23)NC(=O)[C@H](CCCNC(=N)N)NC(=O)[C@@H](Cc2ccccc2)NC(=O)[C@H](Cc2c[nH]cn2)NC(=O)[C@H](CCC(=O)O)NC1=O [DOTA-CycMSH] (HELM PEPTIDE1{[O=C(O)CN1CCN(CC(=O)O)CCN(CC(=O)[*:2])CCN(CC(=O)O)CC1].K.[Nle].E.H.[dF].R.W.G.R.P.V.D}$PEPTIDE1,PEPTIDE1,2:R3-13:R2$$$V2.0)
[1]
  IC50: 1.75 nM

## CCCC[C@@H]1NC(=O)[C@@H](NC(=O)[C@H](CCC(=O)O)NC(=O)[C@H](CCC(=O)O)NC(=O)CN2CCN(CC(=O)O)CCN(CC(=O)O)CCN(CC(=O)O)CC2)CCCCNC(=O)[C@H](CC(=O)O)NC(=O)[C@H](C(C)C)NC(=O)[C@@H]2CCCN2C(=O)[C@H](CCCNC(=N)N)NC(=O)CNC(=O)[C@H](Cc2c[nH]c3ccccc23)NC(=O)[C@H](CCCNC(=N)N)NC(=O)[C@@H](Cc2ccccc2)NC(=O)[C@H](Cc2c[nH]cn2)NC(=O)[C@H](CCC(=O)O)NC1=O [DOTA-GluGlu-CycMSH, 1,4,7,10-tetraazacyclododecane-1,4,7,10-tetraacetic acid-Glu-Glu-c[Lys-Nle-Glu-His-DPhe-Arg-Trp-Gly-Arg-Pro-Val-Asp]] (HELM PEPTIDE1{[O=C(O)CN1CCN(CC(=O)O)CCN(CC(=O)[*:2])CCN(CC(=O)O)CC1].E.E.K.[Nle].E.H.[dF].R.W.G.R.P.V.D}$PEPTIDE1,PEPTIDE1,4:R3-15:R2$$$V2.0)
[1]
  IC50: 6.73 nM

## CCCC[C@@H]1NC(=O)[C@@H](NC(=O)[C@H](CCC(=O)O)NC(=O)CNC(=O)CN2CCN(CC(=O)O)CCN(CC(=O)O)CCN(CC(=O)O)CC2)CCCCNC(=O)[C@H](CC(=O)O)NC(=O)[C@H](C(C)C)NC(=O)[C@@H]2CCCN2C(=O)[C@H](CCCNC(=N)N)NC(=O)CNC(=O)[C@H](Cc2c[nH]c3ccccc23)NC(=O)[C@H](CCCNC(=N)N)NC(=O)[C@@H](Cc2ccccc2)NC(=O)[C@H](Cc2c[nH]cn2)NC(=O)[C@H](CCC(=O)O)NC1=O [DOTA-GlyGlu-CycMSH, DOTA-Gly-Glu-c[Lys-Nle-Glu-His-DPhe-Arg-Trp-Gly-Arg-Pro-Val-Asp]] (HELM PEPTIDE1{[O=C(O)CN1CCN(CC(=O)O)CCN(CC(=O)[*:2])CCN(CC(=O)O)CC1].G.E.K.[Nle].E.H.[dF].R.W.G.R.P.V.D}$PEPTIDE1,PEPTIDE1,4:R3-15:R2$$$V2.0)
[2]
  IC50: 2.43 nM
[1]
  IC50: 0.9 nM

## CCCC[C@@H]1NC(=O)[C@@H](NC(=O)CN2CCN(CC(=O)O)CCN(CC(=O)O)CCN(CC(=O)O)CC2)CCCCNC(=O)[C@H](CC(=O)O)NC(=O)[C@H](C(C)C)NC(=O)[C@@H]2CCCN2C(=O)[C@H](CCCNC(=N)N)NC(=O)CNC(=O)[C@H](Cc2c[nH]c3ccccc23)NC(=O)[C@H](CCCNC(=N)N)NC(=O)[C@@H](Cc2ccccc2)NC(=O)[C@H](Cc2c[nH]cn2)NC(=O)[C@H](CCC(=O)O)NC1=O [^111In-DOTA-CycMSH, metal not drawn] (HELM PEPTIDE1{[O=C(O)CN1CCN(CC(=O)O)CCN(CC(=O)[*:2])CCN(CC(=O)O)CC1].K.[Nle].E.H.[dF].R.W.G.R.P.V.D}$PEPTIDE1,PEPTIDE1,2:R3-13:R2$$$V2.0)
[3]
  urinary metabolites by RP-HPLC: transformed to two more polar metabolites
[4]; 10 μg (6.07 nmol) non-radiolabeled NDP co-injection, 2 h after dose administration
  tumor uptake with NDP co-injection as % of the tumor uptake without NDP co-injection: 3.0%
[4]; 2 h post-injection, tail vein
  tumor uptake: 9.53±1.41 % ID/g
[5]; bone, read-out: bone uptake
  tissue uptake: < 0.2 %ID/g
[5]; kidney, 24 h after dose administration
  kidney uptake at 24 h: 16 ± 2.3 %ID/g
[5]; normal organs except the kidneys, read-out: normal organ uptakes except for the kidneys
  tissue uptake: < 0.8 %ID/g
[5]; tumor, 2 h post-injection, tail vein
  tissue uptake at 2 h: 9.53 ± 1.41 %ID/g
[5]; tumor, 4 h post-injection, tail vein
  tissue uptake at 4 h: 7.54 ± 0.7 %ID/g
[5]; tumor, 24 h post-injection, tail vein
  tissue uptake at 24 h: 2.22 ± 0.51 %ID/g
[5]; urine, by 2 h post-injection, read-out: injected radioactivity cleared through the urinary system
  dose excreted: ~90%
[6]
  stability in mouse serum: stable

## COc1cc2c(c(OC)c1OC)-c1ccc(OC)c(=O)cc1[C@@H](NC(C)=O)CC2 [colchicine]
[7]
  decrease of the renal uptake of radiolabeled peptide: up to 25%
